{
  "source": "patent US8389555B2",
  "about": "“Medicaments” (Motac Neuroscience Limited, priority 2007, dated 2013)",
  "note": "Structures can show the parent of a compound that is named as a salt.",
  "data": [
    {"units": {"melting point": "°C"}, "values": [
      {"smiles": "CCCN(CCCCNC(=O)N1Cc2ccccc2C1)C1CCc2ncsc2C1", "note": "(stereo not drawn) (as salt: salt) [Compound 27, 1,3-Dihydro-isoindole-2-carboxylic acid {4-[propyl-(4,5,6,7-tetrahydro-benzothiazol-6-yl)-amino]-butyl}-amide]", "melting point": 118},
      {"smiles": "CCCN(CCN1CCN(C(=O)c2ccccc2)CC1)C1CCc2ncsc2C1", "note": "(stereo not drawn) (as salt: salt) [Compound 38, [2-(4-Benzoyl-piperazin-1-yl)-ethyl]-propyl-(4,5,6,7-tetrahydro-benzothiazol-6-yl)-amine]", "melting point": 186},
      {"smiles": "CCCN(CCCCNC(=O)N1CCCCC1)C1CCc2ncsc2C1", "note": "(stereo not drawn) (as salt: salt) [Compound 21, Piperidine-1-carboxylic acid {4-[propyl-(4,5,6,7-tetrahydro-benzothiazol-6-yl)-amino]-butyl}-amide]", "melting point": 71},
      {"smiles": "CCN(CCN(CC)C1CCc2ncsc2C1)C1CCc2ncsc2C1", "note": "(stereo not drawn) (as salt: salt) [Compound 33, N,N′-Diethyl-N,N′-bis-(4,5,6,7-tetrahydro-benzothiazol-6-yl)-ethane-1,2-diamine]", "melting point": 83},
      {"smiles": "CCCN(CCCCNC(=O)C1CCCCC1)C1CCc2ncsc2C1", "note": "(stereo not drawn) (as salt: salt) [Compound 20, Cyclohexanecarboxylic acid {4-[propyl-(4,5,6,7-tetrahydro-benzothiazol-6-yl)-amino]-butyl}-amide]", "melting point": 130},
      {"smiles": "C=CCN(CCCCNC(=O)c1ccc2ccccc2c1)C1CCc2ncsc2C1", "note": "(stereo not drawn) (as salt: salt) [Compound 6, Naphthalene-2-carboxylic acid {4-[allyl-(4,5,6,7-tetrahydro-benzothiazol-6-yl)-amino]-butyl}-amide]", "melting point": 128},
      {"smiles": "CCN(CCN1CCN(c2ccccc2OC)CC1)C1CCc2ncsc2C1", "note": "(stereo not drawn) (as salt: salt) [Compound 28]", "melting point": 108},
      {"smiles": "CCCN(CCCCNC(=O)NC1Cc2ccccc2C1)C1CCc2ncsc2C1", "note": "(stereo not drawn) (as salt: salt) [Compound 60, 1-Indan-2-yl-3-{4-[propyl-(4,5,6,7-tetrahydrobenzothiazol-6-yl)amino]butyl}urea]", "melting point": 93},
      {"smiles": "CCCN(CCCCNC(=O)N1CCN(c2ccccc2)CC1)C1CCc2ncsc2C1", "note": "(stereo not drawn) (as salt: salt) [Compound 61, 4-Phenylpiperazine-1-carboxylic acid {4-[propyl-(4,5,6,7-tetrahydrobenzothiazol-6-yl)amino]butyl}amide]", "melting point": 120},
      {"smiles": "CCN(CCNC(=O)c1ccc2ccccc2c1)C1CCc2ncsc2C1", "note": "(stereo not drawn) (as salt: salt) [Compound 32, Naphthalene-2-carboxylic acid {2-[ethyl-(4,5,6,7-tetrahydro-benzothiazol-6-yl)-amino]-ethyl}-amide]", "melting point": 110},
      {"smiles": "CCN(CCCCNC(=O)c1cc2ccccc2s1)C1CCc2ncsc2C1", "note": "(stereo not drawn) (as salt: salt) [Compound 12, Benzo[b]thiophene-2-carboxylic acid {4-[ethyl-(4,5,6,7-tetrahydro-benzothiazol-6-yl)-amino]-butyl}-amide]", "melting point": 103},
      {"smiles": "C#CCN(CCCCNC(=O)c1ccc2ccccc2c1)C1CCc2ncsc2C1", "note": "(stereo not drawn) (as salt: salt) [Compound 7, Naphthalene-2-carboxylic acid {4-[prop-2-ynyl-(4,5,6,7-tetrahydro-benzothiazol-6-yl)-amino]-butyl}-amide]", "melting point": 126},
      {"smiles": "CCN(CCCCNC(=O)c1ccc2ccccc2c1)C1CCc2ncsc2C1", "note": "(stereo not drawn) (as salt: salt) [Compound 4, Naphthalene-2-carboxylic acid {4-[ethyl-(4,5,6,7-tetrahydro-benzothiazol-6-yl)-amino]-butyl}-amide]", "melting point": 120},
      {"smiles": "CC#CCN(CCCCNC(=O)c1ccc2ccccc2c1)C1CCc2ncsc2C1", "note": "(stereo not drawn) (as salt: salt) [Compound 8, Naphthalene-2-carboxylic acid {4-[but-2-ynyl-(4,5,6,7-tetrahydro-benzothiazol-6-yl)-amino]-butyl}-amide]", "melting point": 147},
      {"smiles": "CCCN(CCCCC(=O)NC12CC3CC(CC(C3)C1)C2)C1CCc2ncsc2C1", "note": "(stereo not drawn) (as salt: salt) [Compound 68, N-Adamantanyl-5-(propyl-(4,5,6,7-tetrahydrobenzothiazol-6-yl)amino)pentanamide]", "melting point": 145},
      {"smiles": "CCCN(CCCCNC(=O)N1CCc2ccccc2C1)C1CCc2ncsc2C1", "note": "(stereo not drawn) (as salt: salt) [Compound 24, 3,4-Dihydro-1H-isoquinoline-2-carboxylic acid {4-[propyl-(4,5,6,7-tetrahydro-benzothiazol-6-yl)-amino]-butyl}-amide]", "melting point": 125},
      {"smiles": "CCCN(CCCN1CCN(c2cccc(Cl)c2Cl)CC1)C1CCc2ncsc2C1", "note": "(stereo not drawn) (as salt: salt) [Compound 36, {3-[4-(2,3-Dichloro-phenyl)-piperazin-1-yl]-propyl}-propyl-(4,5,6,7-tetrahydro-benzothiazol-6-yl)-amine]", "melting point": 110},
      {"smiles": "CCCN(CCCCNC(=O)NC1CCCCC1)C1CCc2ncsc2C1", "note": "(stereo not drawn) (as salt: salt) [Compound 22, 1-Cyclohexyl-3-{4-[propyl-(4,5,6,7-tetrahydro-benzothiazol-6-yl)-amino]-butyl}-urea]", "melting point": 149},
      {"smiles": "CCCN(CCCCNC(=O)C1Cc2ccccc2C1)C1CCc2ncsc2C1", "note": "(stereo not drawn) (as salt: salt) [Compound 26, Indane-2-carboxylic acid-{4-[propyl-(4,5,6,7-tetrahydrobenzothiazol-6-yl)amino]butyl}amide]", "melting point": 119},
      {"smiles": "CCCN(CCCCN1CCN(c2cccc(Cl)c2Cl)CC1)C1CCc2ncsc2C1", "note": "(stereo not drawn) (as salt: salt) [Compound 37, {4-[4-(2,3-Dichloro-phenyl)-piperazin-1-yl]-butyl}-propyl-(4,5,6,7-tetrahydro-benzothiazol-6-yl)-amine]", "melting point": 150},
      {"smiles": "CCN(CCN1CCc2ccccc2C1)C1CCc2ncsc2C1", "note": "(stereo not drawn) (as salt: salt) [Compound 31, [2-(3,4-Dihydro-1H-isoquinolin-2-yl)-ethyl]-ethyl-(4,5,6,7-tetrahydro-benzothiazol-6-yl)-amine]", "melting point": 193},
      {"smiles": "CCCN(CCCCC(=O)N1CCN(c2ccccc2)CC1)C1CCc2ncsc2C1", "note": "(stereo not drawn) (as salt: salt) [Compound 66, 1-(4-Phenylpiperazin-1-yl)-5-(propyl-(4,5,6,7-tetrahydrobenzothiazol-6-yl)amino)pentan-1-one]", "melting point": 75},
      {"smiles": "CCN(CCCCNC(=O)c1ccc2ncsc2c1)C1CCc2ncsc2C1", "note": "(stereo not drawn) (as salt: salt) [Compound 14, Benzothiazole-6-carboxylic acid {4-[ethyl-(4,5,6,7-tetrahydro-benzothiazol-6-yl)-amino]-butyl}-amide]", "melting point": 106.5},
      {"smiles": "CN(CCCCNC(=O)c1cc2ccccc2s1)C1CCc2ncsc2C1", "note": "(stereo not drawn) (as salt: salt) [Compound 11, Benzo[b]thiophene-2-carboxylic acid {4-[methyl-(4,5,6,7-tetrahydro-benzothiazol-6-yl)-amino]-butyl}-amide]", "melting point": 105},
      {"smiles": "CCCN(CCCCC(=O)NC1Cc2ccccc2C1)C1CCc2ncsc2C1", "note": "(stereo not drawn) (as salt: salt) [Compound 67, N-(2,3-dihydro-1H-inden-2-yl)-5-(propyl-(4,5,6,7-tetrahydrobenzothiazol-6-yl)amino)pentanamide]", "melting point": 60},
      {"smiles": "CN(CCCCNC(=O)c1ccc2ccccc2c1)C1CCc2ncsc2C1", "note": "(stereo not drawn) (as salt: salt) [Compound 3, Naphthalene-2-carboxylic acid {4-[methyl-(4,5,6,7-tetrahydro-benzothiazol-6-yl)-amino]-butyl}-amide]", "melting point": 122},
      {"smiles": "CCCN(CCCCNC(=O)N1CCc2cc(OC)c(OC)cc2C1)C1CCc2ncsc2C1", "note": "(stereo not drawn) (as salt: salt) [Compound 25, 6,7-Dimethoxy-3,4-dihydro-1H-isoquinoline-2-carboxylic acid {4-[propyl-(4,5,6,7-tetrahydro-benzothiazol-6-yl)-amino]-butyl}-amide]", "melting point": 106}
    ]}
  ]
}
